Reference: patent publication US7419980B2, “Fused-aryl and heteroaryl derivatives and methods of their use” (Wyeth, priority 2003, dated 2008)
Counter-ions that a name gives are not always drawn. Like-named read-outs stand apart in the source and are kept apart here.

Target: T1, human hNET (Homo sapiens, UniProt P23975)
T1 construct: expressed in transfected cells; host or cells: MDCK-Net6 (MDCK cells stably transfected with hNET)
Test: Norepinephrine (NE) uptake assay in MDCK-Net6 cells
Type: cell-based
Protocol: MDCK-Net6 cells, stably transfected with human hNET (Pacholczyk, T., R. D. Blakely, and S. G. Amara, Nature, 1991, 350(6316): p. 350-4) were cultured in growth medium containing high glucose DMEM (Gibco, Cat. No. 11995), 10% FBS (dialyzed, heat-inactivated, US Bio-Technologies, Lot FBD1129HI) and 500 μg/ml G418 (Gibco, Cat. No. 10131). Cells were plated at 300,000/T75 flask and cells were split twice weekly. The JAR cell line (human placental choriocarcinoma) was purchased from ATCC (Cat. No. HTB-144). The cells were cultured in growth medium containing RPMI 1640 (Gibco, Cat. No. 72400), 10% FBS (Irvine, Cat. No. 3000), 1% sodium pyruvate (Gibco, Cat. No. 1136) and 0.25% glucose. Cells were plated at 250,000 cells/T75 flask and split twice weekly. For all assays, cells were plated in Wallac 96-well sterile plates (PerkinElmer, Cat. No. 3983498).
On day 1, cells were plated at 3,000 cells/well in growth medium and maintained in a cell incubator (37° C., 5% CO2). On day 2, growth medium was replaced with 200 μl of assay buffer (25 mM HEPES; 120 mM NaCl; 5 mM KCl; 2.5 mM CaCl2; 1.2 mM MgSO4; 2 mg/ml glucose (pH 7.4, 37° C.)) containing 0.2 mg/ml ascorbic acid and 10 μM pargyline. Plates containing cells with 200 μl of assay buffer were equilibrated for 10 minutes at 37° C. prior to addition of compounds. A stock solution of desipramine was prepared in DMSO (10 mM) and delivered to triplicate wells containing cells for a final tert concentration of 1 μM. Data from these wells were used to define non-specific NE uptake (minimum NE uptake). Test compounds were prepared in DMSO (10 mM) and diluted in assay buffer according to tert range (1 to 10,000 nM). Twenty-five microliters of assay buffer (maximum NE uptake) or tert compound were added directly to triplicate wells containing cells in 200 μl of assay buffer. The cells in assay buffer with tert compounds were incubated for 20 minutes at 37° C. To initiate the NE uptake, [^3H]NE diluted in assay buffer (120 nM final assay concentration) was delivered in 25 μl aliquots to each well and the plates were incubated for 5 minutes (37° C.). The reaction was terminated by decanting the supernatant from the plate. The plates containing cells were washed twice with 200 μl assay buffer (37° C.) to remove free radioligand. The plates were then inverted, left to dry for 2 minutes, then reinverted and air-dried for an additional 10 minutes. The cells were lysed in 25 μl of 0.25 N NaOH solution (4° C.), placed on a shake table and vigorously shaken for 5 minutes. After cell lysis, 75 μl of scintillation cocktail was added to each well and the plates were sealed with film tape. The plates were returned to the shake table and vigorously shaken for a minimum of 10 minutes to ensure adequate partitioning of organic and aqueous solutions. The plates were counted in a Wallac Microbeta counter (PerkinElmer) to collect the raw cpm data.
For each experiment, a data stream of cpm values collected from the Wallac Microbeta counter was downloaded to a Microsoft Excel statistical application program. Calculations of EC50 values were made using the transformed-both-sides logistic dose response program written by Wyeth Biometrics Department. The statistical program uses mean cpm values from wells representing maximum binding or uptake (assay buffer) and mean cpm values from wells representing minimum binding or uptake ((1 μM desipramine (hNET) or 1 μM paroxetine (hSERT)). Estimation of the EC50 value was completed on a log scale and the line was fit between the maximum and minimum binding or uptake values. All graphic data representation was generated by normalizing each data point to a mean percent based on the maximum and minimum binding or uptake values. The EC50 values reported from multiple experiments were calculated by pooling the raw data from each experiment and analyzing the pooled data as one experiment.

[1] = 1 μM test compound, [3H]NE uptake, MDCK-Net6 cells, read-out: % Inhibition @ 1 μM (hNET)
[2] = MDCK-Net6, read-out: % Inhibition @ 1 μM (hNET)

T1 sequence (P23975 whole entry): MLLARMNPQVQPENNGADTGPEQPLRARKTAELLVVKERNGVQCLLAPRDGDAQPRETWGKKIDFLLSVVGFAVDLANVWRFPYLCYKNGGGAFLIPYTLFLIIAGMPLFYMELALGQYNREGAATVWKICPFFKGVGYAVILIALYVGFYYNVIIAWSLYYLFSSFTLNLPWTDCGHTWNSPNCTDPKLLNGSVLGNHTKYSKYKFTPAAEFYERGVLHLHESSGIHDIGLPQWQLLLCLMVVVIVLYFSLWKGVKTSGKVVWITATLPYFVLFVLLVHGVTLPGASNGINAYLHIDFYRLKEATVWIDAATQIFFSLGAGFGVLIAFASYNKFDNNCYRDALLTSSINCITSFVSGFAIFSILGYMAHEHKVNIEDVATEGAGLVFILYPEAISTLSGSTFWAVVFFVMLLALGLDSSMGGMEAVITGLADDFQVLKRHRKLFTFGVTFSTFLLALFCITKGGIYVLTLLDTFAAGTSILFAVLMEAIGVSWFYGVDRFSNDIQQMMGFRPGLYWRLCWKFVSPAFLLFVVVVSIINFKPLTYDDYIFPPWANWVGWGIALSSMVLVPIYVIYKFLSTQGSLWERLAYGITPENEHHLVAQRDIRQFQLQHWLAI

Row | SMILES | inhibition at 1 µM [1] [%] | EC50 ([3H]NE uptake, MDCK-Net6 cells) [nM] | inhibition at 1 µM [2] [%]
1 | OC1(C(CN2CCNCC2)c2cccc(Cl)c2)CCCCC1 (stereo not drawn) [Example 1, 1-[1-(3-chlorophenyl)-2-piperazin-1-ylethyl]cyclohexanol Dihydrochloride] |  | 18 | 
2 | OC1(C(CN2CCNCC2)c2ccc3ccccc3c2)CCC1 (stereo not drawn) [Example 5, 1-[1-(2-naphthyl)-2-piperazin-1-ylethyl]cyclobutanol Dihydrochloride] | 97 | 160 | 
3 | CCC(O)(CC)C(CN1CCNCC1)c1cccc2ccccc12 (stereo not drawn) [Example 53, 3-ethyl-2-(1-naphthyl)-1-piperazin-1-ylpentan-3-ol Dihydrochloride] | 34 |  | 
4 | CN1CCC(O)(C(CN2CCNCC2)c2ccc3ccccc3c2)CC1 (stereo not drawn) [Example 59, 1-methyl-4-[1-(2-naphthyl)-2-piperazin-1-ylethyl]piperidin-4-ol Dihydrochloride] | 33 |  | 
5 | CN1CCN(CC(c2ccc3ccccc3c2)C2(O)CCCCC2)CC1 (stereo not drawn) [Example 64, 1-[2-(4-methylpiperazin-1-yl)-1-(2-naphthyl)ethyl]cyclohexanol Dihydrochloride] | 28 |  | 
6 | CN1CCN(CC(c2cccc3ccccc23)C2(O)CCC2)CC1 (stereo not drawn) [Example 69, 1-[2-(4-methylpiperazin-1-yl)-1-(1-naphthyl)ethyl]cyclobutanol Dihydrochloride] | 26 |  | 
7 | CC(C)(C)C1CCC(O)(C(CN2CCNCC2)c2cccc3ccccc23)CC1 (stereo not drawn) [Example 76, 4-tert-butyl-1-[1-(1-naphthyl)-2-piperazin-1-ylethyl]cyclohexanol Dihydrochloride] | 22 |  | 
8 | CCC(O)(CC)C(CN1CCN(C)CC1)c1cccc2ccccc12 (stereo not drawn) [Example 89, 3-ethyl-1-(4-methylpiperazin-1-yl)-2-(1-naphthyl)pentan-3-ol Dihydrochloride] | 15 |  | 
9 | CCC1CCC(O)(C(CN2CCNCC2)c2cccc3ccccc23)CC1 (stereo not drawn) [Example 91, 4-ethyl-1-[1-(1-naphthyl)-2-piperazin-1-ylethyl]cyclohexanol Dihydrochloride] | 14 |  | 
10 | CC1CCC(O)(C(CN2CCNCC2)c2cccc3ccccc23)CC1 (stereo not drawn) [Example 97, 4-methyl-1-[1-(1-naphthyl)-2-piperazin-1-ylethyl]cyclohexanol Dihydrochloride] | 5 |  | 
11 | CN1CCN(CC(c2cccc3ccccc23)C2(O)CCC(C(C)(C)C)CC2)CC1 (stereo not drawn) [Example 100, 4-tert-butyl-1-[2-(4-methylpiperazin-1-yl)-1-(1-naphthyl)ethyl]cyclohexanol Dihydrochloride] | 4 |  | 
12 | CN1CCC(O)(C(CN2CCOCC2)c2ccc3ccccc3c2)CC1 (stereo not drawn) [Example 102, 1-methyl-4-[2-morpholin-4-yl-1-(2-naphthyl)ethyl]piperidin-4-ol Hydrochloride] | 3 |  | 
13 | OC1(C(CN2CCOCC2)c2ccc3ccccc3c2)CCCCC1 (stereo not drawn) [Example 106, 1-[2-morpholin-4-yl-1-(2-naphthyl)ethyl]cyclohexanol Hydrochloride] | 2 |  | 
14 | OC1(C(CN2CCOCC2)c2ccc3ccccc3c2)CCC1 (stereo not drawn) [Example 109, 1-[2-morpholin-4-yl-1-(2-naphthyl)ethyl]cyclobutanol Hydrochloride] | 0 |  | 
15 | OC1(C(CN2CCNCC2)c2cc(Cl)sc2Cl)CCCCC1 (stereo not drawn) [Example 141, 1-[1-(2,5-dichlorothien-3-yl)-2-piperazine-1-ylethyl]cyclohexanol Dihydrochloride] |  | 240 | 94
16 | OC1(C(CN2CCNCC2)c2csc(Cl)c2)CCCCC1 (stereo not drawn) [Example 144, 1-[1-(5-chlorothien-3-yl)-2-piperazin-1-ylethyl]cyclohexanol Dihydrochloride] |  | 100 | 86
17 | NC1CCN(CC(c2csc(Cl)c2)C2(O)CCCCC2)CC1 (stereo not drawn) [Example 145, 1-[2-(4-aminopiperidin-1-yl)-1-(5-chlorothien-3-yl)ethyl]cyclohexanol Dihydrochloride] |  |  | 38
18 | OC1(C(CN2CCNCC2)c2csc3ccccc23)CCCCC1 (stereo not drawn) [Example 146, 1-[1-(1-benzothien-3-yl)-2-piperazin-1-ylethyl]cyclohexanol Dihydrochloride] |  | 120 | 82
19 | OC1(C(CN2CCNCC2)c2ccsc2Cl)CCCCC1 (stereo not drawn) [Example 156, 1-[1-(2-chlorothien-3-yl)-2-piperazin-1-ylethyl]cyclohexanol Dihydrochloride] |  | 720 | 55
20 | CN1CCN(CC(c2csc(Cl)c2)C2(O)CCCCC2)CC1 (stereo not drawn) [Example 159, 1-[1-(5-chlorothien-3-yl)-2-(4-methylpiperazin-1-yl)ethyl]cyclohexanol Dihydrochloride] |  | 25 | 88
21 | CN1CCN(C[C@@H](c2csc(Cl)c2)C2(O)CCCCC2)CC1 [Example 258, 1-[(1R)-1-(5-chlorothien-3-yl)-2-(4-methylpiperazin-1-ylethyl]cyclohexanol Dihydrochloride] |  |  | 91
22 | CN1CCN(C[C@H](c2csc(Cl)c2)C2(O)CCCCC2)CC1 [Example 259, 1-[(1S)-1-(5-chlorothien-3-yl)-2-(4-methylpiperazin-1-yl)ethyl]cyclohexanol Dihydrochloride] |  |  | 20

The next lines start with results.

Row | inhibition at 1 µM [1] [%] | SMILES | EC50 ([3H]NE uptake, MDCK-Net6 cells) [nM] | inhibition at 1 µM [2] [%]
23 | 86 | OC1(C(CN2CCNCC2)c2cccc3ccccc23)CCCCC1 (stereo not drawn) [Example 21, 1-[1-(1-naphthyl)-2-piperazin-1-ylethyl]cyclohexanol Dihydrochloride] | 57 | 
24 | 44 | OC1(C(CN2CCNCC2)c2cccc3ccccc23)CCCC1 (stereo not drawn) [Example 45, 1-[1-(1-naphthyl)-2-piperazin-1-ylethyl]cyclopentanol Dihydrochloride] |  | 
25 | 36 | CN1CCN(CC(c2cccc3ccccc23)C2(O)CCCC2)CC1 (stereo not drawn) [Example 56, 1-[2-(4-methylpiperazin-1-yl)-1-(1-naphthyl)ethyl]cyclopentanol Dihydrochloride] |  | 
26 | 26 | OC1(C(CN2CCNCC2)c2ccc3ccccc3c2)CCCCC1 (stereo not drawn) [Example 63, 1-[1-(2-naphthyl)-2-piperazin-1-ylethyl]cyclohexanol Dihydrochloride] |  | 
27 | 23 | OC1(C(CN2CCNCC2)c2cccc3ccccc23)CCC1 (stereo not drawn) [Example 68, 1-[1-(1-naphthyl)-2-piperazin-1-ylethyl]cyclobutanol Dihydrochloride] |  | 
28 | 51 | OC1(C(CN2CCNCC2)c2ccc(Cl)s2)CCCCC1 (stereo not drawn) [Example 142, 1-[1-(5-chlorothien-2-yl)-2-piperazin-1-ylethyl]cyclohexanol Dihydrochloride] |  | 
29 | 47 | OC1(C(CN2CCNCC2)c2ccc(Br)s2)CCCCC1 (stereo not drawn) [Example 143, 1-[1-(5-bromothien-2-yl)-2-piperazin-1-ylethyl]cyclohexanol Dihydrochloride] |  | 
30 | 32 | Cn1cc(C(CN2CCNCC2)C2(O)CCCCC2)c2ccccc21 (stereo not drawn) [Example 154, 1-[1-(1-methyl-1H-indol-3-yl)-2-piperazin-1-ylethyl]cyclohexanol Dihydrochloride] |  | 
31 | 21 | OC1(C(CN2CCNCC2)c2c[nH]c3ccccc23)CCCCC1 (stereo not drawn) [Example 155, 1-[1-(1H-indol-3-yl)-2-piperazin-1-ylethyl]cyclohexanol Dihydrochloride] |  | 
32 | 75 | OC1(C(CN2CCNCC2)c2csc3ccc(Cl)cc23)CCCCC1 (stereo not drawn) [Example 260, 1-[1-(5-chloro-1-benzothien-3-yl)-2-piperazin-1-ylethyl]cyclohexanol Dihydrochloride] |  | 
